Experimental data as given in article PMC10068313, “Mechanical forces impair antigen discrimination by reducing differences in T‐cell receptor/peptide–MHC off‐rates” (The EMBO Journal, 2022).

Experiments:
[1] = molecular target: Tax 5F peptide (printed ) presented on HLA-A*02:01 (human | HTLV-1); assay: SPR
[2] = molecular target: Tax 5H peptide presented on HLA-A*02:01 (human | HTLV-1); assay: SPR
[3] = molecular target: Tax 7Q peptide presented on HLA-A*02:01 (human | HTLV-1); assay: SPR
[4] = molecular target: Tax 7R peptide presented on HLA-A*02:01 (human | HTLV-1); assay: SPR
[5] = molecular target: Tax 7T peptide presented on HLA-A*02:01 (human | HTLV-1); assay: SPR
[6] = tested on: 1G4 TCR; assay: Laminar flow chamber (LFC) assay, 1G4 TCR-coated beads over pMHC surface; conditions: for force sensitivity parameter xβ, 1G4 TCR: Bell's model fit of off-rates under force (survival at 1 s, corrected for non-specific binding), forces < 120 pN, 6–10 independent experiments combined; for force sensitivity parameter xβ, 1G4 TCR / zero-force off-rate (k0off) from Bell's model, 1G4 TCR: cell-free; for force sensitivity parameter xβ, 1G4 TCR / off-rate / bond type at forces < 20 pN, 1G4 TCR / bond type under force, 1G4 TCR / zero-force off-rate (k0off) from Bell's model, 1G4 TCR: 37°C; for off-rate: survival at 1 s, corrected data; for bond type at forces < 20 pN, 1G4 TCR / bond type under force, 1G4 TCR: LFC; for bond type under force, 1G4 TCR: purified TCR; for zero-force off-rate (k0off) from Bell's model, 1G4 TCR: extrapolated from off-rates under force (survival at 1 s, corrected data); for koff_0: source data of Fig 2E, 1G4 TCR, zero-force off-rate from Bell's model fit
Procedure: In this assay, beads coated with TCR flow over a low density of pMHC while a camera records bead motion (Fig 2A, Movie EV1). […] The duration of TCR/pMHC binding is determined by an automated image analysis algorithm that detects the duration of bead arrests.
We first confirmed that bead arrests were mediated by single bonds. […] These constraints limit the LFC to a range of flow velocities that translate into pulling forces between ~ 5–120 pN with the upper bound determined, in part, by the binding rate and strength of the specific TCR/pMHC interaction. Finally, survival distributions were generated using the duration of individual beads for each TCR/pMHC pair and corrected by the corresponding distribution of arrests without pMHC for each paired velocity. We focus on the first 5 s of the distribution because on longer timescales measurement of bead arrest is often interrupted by a collision from a second bead.
Glass slides were rinsed twice in absolute ethanol then washed in a “piranha” solution composed of 70% H2SO4, 15% water and 15% H2O2 for 10 min, then rinsed with 5 litres of deionized water. […] Glass slides were then mounted in a home‐made multi‐channel thermo‐regulated flow chamber device, forming nine independent chambers of 12 mm length and 2 × 0.250 mm^2 section. Each chamber was then filled with a biotinylated pMHC solution in PBS with 0.1% BSA at chosen concentration, using cascade dilution to deposit in our 9‐chambers apparatus 8 different amounts of pMHC plus one chamber as a negative control. Microspheres (Dynal M‐450 tosly‐activated, Thermo Fisher, France) were rinsed three time in a 0.1 M borate solution, then incubated in a 200 μg/ml solution of anti‐6xHis‐tag antibody (Bio‐Rad, MCA1396, clone AD1.1.10, RRID: AB322084) overnight under constant agitation. Microspheres were rinsed three time in PBS/0.1% BSA then incubated prior to each experiment in a 200 μg/ml solution of 6xHis‐tag TCR.
The device forming nine independent chambers on a common glass slide was thermo‐regulated at 37°C by water circulation, set on an inverted microscope with a 10× lens (Leica, Germany) with a digital CCD camera (UEye, IDS Germany), and chamber entry was connected to the piping. For each independent chamber, the automaton performed cycles, each cycle being an experiment for a given shear flow. The automaton repeated cycles of microspheres agitation, microspheres injection in the chamber, launch of movie recording at 50 frames per seconds with M‐JPEG on‐the‐fly compression, and flow at a given shear for 90 s. Shear value was automatically modified for each new cycle until all chosen shear conditions had been recorded. The chamber was manually disconnected and next chamber was connected, then automaton was re‐launched. Raw data are in the form of movies of microspheres motion. A software suite written in Java as ImageJ plug‐ins retrieves microspheres trajectories and then detects microspheres arrest events using a velocity threshold and record arrests number, arrests duration and distance travelled by sedimented microspheres.
Binding linear densities are calculated as the ratio of the number of arrests on the distance travelled by microspheres sedimented on the chamber surface. Specific binding densities are calculated by subtracting control linear binding density from assay linear binding density for a given shear condition. Duration of arrests was pooled for experiments sharing identical TCR and pMHC molecules, identical amount of pMHC on the surface and identical shear rate, to build survival curves of the arrests. […] Each TCR‐pMHC bond was measured in 8 to 12 independent experiments.

[7] = tested on: 1G4 TCR; set-up: method as in Robert et al, 2012; conditions: ref Robert et al, 2012; cited from earlier work
[8] = molecular target: 1G4 TCR; conditions: solution affinity of NYE pMHC for 1G4 TCR used in Fig 4F; ref Pettmann et al, 2021; cited from earlier work
[9] = molecular target: NYE 3A peptide presented on HLA-A*02:01; assay: SPR
[10] = molecular target: NYE 3Y peptide presented on HLA-A*02:01; assay: SPR
[11] = molecular target: NYE 4D peptide presented on HLA-A*02:01; assay: SPR
[12] = molecular target: NYE 4E5E8E peptide presented on HLA-A*02:01; assay: SPR
[13] = molecular target: NYE 6T peptide presented on HLA-A*02:01; assay: SPR
[14] = molecular target: NYE 6V peptide presented on HLA-A*02:01; assay: SPR

Which Kd [1] does the source give for “Soluble A6 TCR (from UniProt P01848 1-93; A0A5B9 1-129)” here?
Its Kd is 3 µM.

And the Kd [2]?
Its Kd is 56 µM.

And the Kd [3]?
Its Kd is 37 µM.

What about the Kd [4] of the same substance?
Its Kd is 21 µM.

And the Kd [5]?
Its Kd is 3 µM.

With SLLMWVTQV [NYE 6V] as the substance, how does the “force sensitivity parameter xβ, 1G4 TCR” value [6] read?
The value was 0.08939 nm.

What about the off-rate ([6]; Force 4.03 pN) of the same substance?
The off-rate was 0.1923 s⁻¹.

What about the off-rate ([6]; Force 10.0633 pN) of the same substance?
The off-rate was 0.2976 s⁻¹.

And the off-rate ([6]; Force 34.1225 pN)?
The off-rate was 0.9589 s⁻¹.

And the off-rate ([6]; Force 53.3785 pN)?
The off-rate was 1.216 s⁻¹.

What about the off-rate ([6]; Force 71.3475 pN) of the same substance?
Its off-rate is 1.468 s⁻¹.

What does the source list for SLAMWITQV [NYE 3A]?
bond type under force at 25°C, 1G4 TCR [7]: canonical slip; force sensitivity parameter xβ, 1G4 TCR [6]: -0.016 nm; bond type at forces < 20 pN, 1G4 TCR [6]: slip bonds; bond type under force, 1G4 TCR [6]: did not display canonical slip or catch bonds; zero-force off-rate (k0off) from Bell's model, 1G4 TCR [6]: 0.42 s⁻¹

With SLYMWITQV [NYE 3Y] as the substance, how does the “force sensitivity parameter xβ, 1G4 TCR” value [6] read?
Its value is 0.06402 nm.

And the off-rate ([6]; Force 4.46758 pN)?
The off-rate was 0.1572 s⁻¹.

And the off-rate ([6]; Force 11.986 pN)?
The off-rate was 0.462 s⁻¹.

And the off-rate ([6]; Force 24.9875 pN)?
Its off-rate is 0.9162 s⁻¹.

And the off-rate ([6]; Force 50.6303 pN)?
The off-rate was 1.043 s⁻¹.

What about the off-rate ([6]; Force 74.2014 pN) of the same substance?
Its off-rate is 1.215 s⁻¹.

For SLLMWTTQV [NYE 6T], which Kd [8] is on record?
Its Kd is 162 µM.

And the “bond type under force at 25°C, 1G4 TCR” value [7]?
Its value is “catch bonds”.

What about the “force sensitivity parameter xβ, 1G4 TCR” value [6] of the same substance?
The value was 0.019 nm.

What about the “bond type at forces < 20 pN, 1G4 TCR” value [6] of the same substance?
The value was “slip bonds”.

And the “bond type under force, 1G4 TCR” value [6]?
Its value is “did not display canonical slip or catch bonds”.

And the “zero-force off-rate (k0off) from Bell's model, 1G4 TCR” value [6]?
Its value is 0.87 s⁻¹.

Which Kd [8] does the source give for SLLDWITQV [NYE 4D] here?
The Kd was 140 µM.

What about the “force sensitivity parameter xβ, 1G4 TCR” value [6] of the same substance?
The value was 0.03228 nm.

And the off-rate ([6]; Force 5.76043 pN)?
Its off-rate is 0.2871 s⁻¹.

And the off-rate ([6]; Force 10.9915 pN)?
Its off-rate is 0.9234 s⁻¹.

And the off-rate ([6]; Force 35.7266 pN)?
The off-rate was 1.088 s⁻¹.

What about the off-rate ([6]; Force 49.679 pN) of the same substance?
Its off-rate is 0.8939 s⁻¹.

What about the off-rate ([6]; Force 66.9081 pN) of the same substance?
The off-rate was 1.152 s⁻¹.

What about the off-rate ([6]; Force 92.3818 pN) of the same substance?
Its off-rate is 1.23 s⁻¹.

What about the koff_0 [6] of the same substance?
Its koff_0 is -0.1852.

Which Kd [9] does the source give for “Soluble 1G4 TCR (from UniProt P01848 1-93; A0A5B9 1-129)” here?
Its Kd is 7 µM.

What about the Kd [10] of the same substance?
The Kd was 55 µM.

What about the Kd [11] of the same substance?
The Kd was 139 µM.

And the Kd [12]?
Its Kd is 17 µM.

And the Kd [13]?
Its Kd is 161 µM.

What about the Kd [14] of the same substance?
The Kd was 17 µM.

Which “force sensitivity parameter xβ, 1G4 TCR” value [6] does the source give for SLLEEITEV [NYE 4E5E8E] here?
Its value is 0.06548 nm.

And the off-rate ([6]; Force 9.5329 pN)?
The off-rate was 0.132 s⁻¹.

And the off-rate ([6]; Force 20.855 pN)?
The off-rate was 0.181 s⁻¹.

What about the off-rate ([6]; Force 57.9236 pN) of the same substance?
The off-rate was 0.5269 s⁻¹.

And the off-rate ([6]; Force 74.4128 pN)?
Its off-rate is 0.6611 s⁻¹.

And the off-rate ([6]; Force 98.8295 pN)?
Its off-rate is 0.7569 s⁻¹.

What about the koff_0 [6] of the same substance?
The koff_0 was -0.7399.
